Several values for one entry are separate records, joined by “and”; a condition that tells them apart may be missing. Equal entries are not always repeated.
Legend:
CepR [1] = biological target: T1, CepR (Burkholderia cenocepacia, UniProt B4EMD0); assay: CepR agonism in E. coli β-galactosidase reporter (Ec-reporter) JLD271 [pJN105-cepR + pSC11-cepI]; format: cell-based, B. cenocepacia; conditions: for Maximal Activation (%): activity for 100 μM C8-AHL set to 100%, error ±10%
T1 sequence (B4EMD0 1-239): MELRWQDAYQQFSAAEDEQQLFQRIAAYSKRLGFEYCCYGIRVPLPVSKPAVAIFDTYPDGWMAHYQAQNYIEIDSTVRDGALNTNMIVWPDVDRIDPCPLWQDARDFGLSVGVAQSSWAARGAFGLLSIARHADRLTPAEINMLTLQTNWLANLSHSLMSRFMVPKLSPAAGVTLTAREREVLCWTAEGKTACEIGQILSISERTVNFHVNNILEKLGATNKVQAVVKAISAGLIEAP
Description: (§1) We began our study by screening the AHL library for CepR modulators using an E. coli-based two plasmid reporter system (Ec-reporter)[38]–[40]. Certain members of the Bcc harbor additional QS systems that are either AHL-based (e.g., BviI/BviR in B. vietnamiensis)[41] or diffusible signal factor (DSF)-based (B. cenocepacia)[42], and at least one member of the Bcc has multiple receptors that respond to C8-AHL (e.g., CepR and CepR2 in B. cenocepacia)[43]. Thus, we reasoned that using a CepR reporter in a heterologous background could simplify our initial analyses. We modified our previously reported E. coli-based two plasmid β-galactosidase reporter system to develop a CepR Ec-reporter (see Methods). The first plasmid, pJN105-cepR, contains CepR from B. cenocepacia under the control of the L-arabinose inducible pBAD promoter. A second plasmid contains a transcriptional fusion of lacZ to the cepI promoter region. The two plasmids were co-transformed into a QS mutant E. coli strain (JLD271 ∆sdiA) that lacks its LuxR-type receptor, SdiA. Using this reporter system, if an exogenously -added compound is able to interact with CepR, this will affect the protein’s interaction with the cepI promoter region and alter β-galactosidase production. Enzyme production, and thereby CepR activity, is then measurable via the degradation of a colorimetric substrate for β-galactosidase. Using this new Ec-reporter, we observed robust activity of CepR in response to its native ligand C8-AHL, with an EC50 of 5 nM (Table 1).
We used the CepR Ec-reporter to perform a primary agonism screen at a single compound concentration (100 μM, or its solubility limit, indicated in Table S1). Thirty-one compounds displaying ≥70% agonistic activity in CepR (relative to C8-AHL) were identified and subjected to dose-response analyses using the Ec-reporter (Table I; see Table S2 for complete screening data and Fig. S3 for dose-response curves).
(§2) E. coli β-galactosidase reporter assays (derived from ref.[63]) and reagents used to obtain primary screening and dose-response data were performed as previously described[22],[60],[64], with the following modifications: E. coli JLD271 (∆sdiA) was co-transformed iteratively with pSC11-cepI and pJN105-cepR via electroporation. A single colony was used to start overnight cultures in LB medium + ampicillin (100 μg/mL) + gentamicin (15 μg/mL). A 1:10 dilution of overnight culture was grown in fresh medium to OD600 = 0.25. A sterile solution of L-arabinose in water (27 mM final concentration) was added to induce protein expression, after which cells were plated in 96-well plates containing varying concentrations of compound (200 μL total volume).
(§3) Cells were grown for 4 h, OD600 was read, 50 μL aliquots from each well were permeabilized in 200 μL Z Buffer, and then 150 μL of this mixture used to measure the cleavage of 25 μL of 4 mg/mL CPRG in phosphate buffered saline (PBS) at 37 °C until positive control wells developed a deep red color (~30 min). For all agonism assays, synthetic compound (100 μM) was screened alongside and compared to the native ligand, C8-AHL (100 μM). For all primary and dose-response antagonism assays, the concentration of native ligand utilized was 10 nM (approximately equal to twice its EC50 value). […] At least 3 separate trials were performed using unique cultures on separate days.

CepR [2] = biological target: T1, CepR; assay: CepR antagonism in E. coli β-galactosidase reporter (Ec-reporter), competition against C8-AHL; format: cell-based, B. cenocepacia; conditions: for Inh% (100-Act%): Table S3, Ec-reporter
Description: as §1
To identify antagonists of CepR, we screened the AHL library (at 100 μM) in competition against the native ligand C8-AHL (at approximately twice its EC50 value, 0.01 μM) in the Ec-reporter. […] The active compounds were subjected to dose-response analyses in the Ec-reporter to obtain IC50 values and assess their relative potencies (Table 2; see Table S3 for complete screening data and Fig. S3 for dose-response curves). One general trend that we noted at the outset was the majority of the antagonists had acyl tails of similar or shorter overall length than CepR’s native ligand, C8-AHL. From this set, the strongest antagonists could be divided into two classes: (i) “short alkyl tail” AHLs or analogs thereof, and (ii) phenylacetanoyl HLs (PHLs). The discovery that the latter compounds were CepR antagonists was perhaps not surprising, as we have found substituted PHLs to strongly antagonize the majority of the LuxR-type receptors studied in our laboratory to date[22],[24],[29],[45],[46].
as §2, §3

[3] = Table S2, Ec-reporter, screening conc. 100 μM
[4] = screening conc. 100 μM, against 10 nM C8-AHL
[5] = Ec-reporter, agonism dose-response

Compound | Act% (CepR [1]; [3]) [%] | Inh% (100-Act%) (CepR [2]; [4]) [%] | further results
O=C(N[C@H]1CCOC1=O)c1ccccc1 [Compound B8] | 10 | 1.0 | 
O=C(CCCc1c[nH]c2ccccc12)N[C@@H]1CCOC1=O [Compound B5] | 7.2 | -30 | 
Nc1ccc(CC(=O)N[C@H]2CCOC2=O)cc1 [Compound C21] | 21 | -20 | 
CCCCCCCCCC(=O)CC(=O)Nc1ccccc1 [Compound V-06-018, reference compound] |  |  | Act% (CepR [1]; Table S2, Ec-reporter, screening conc. 100 μM, listed as V-06-01 8): 2.4%; Inh% (100-Act%) (CepR [2]; screening conc. 100 μM, against 10 nM C8-AHL, listed as V-06-01 8): -20%
O=C(Cc1ccccc1F)N[C@H]1CCOC1=O [Compound C4] | 0.1 | 3.0 | CepR antagonism in words (CepR [2]; Ec-reporter): inactive as antagonists
O=C(Cc1ccc(Br)cc1)N[C@@H]1CCOC1=O [Compound B4] | -0.5 | 0.0 | 
CCCCCOc1ccc(C(=O)N[C@H]2CCOC2=O)cc1 [Compound R5] | 95 | -10 | 
CCCCCCCCCC(=O)CC(=O)Nc1ccccc1 [3’O-C12-analine, reference compound] | 52 | 16 | 
O=C(N[C@H]1CCOC1=O)c1ccc(-c2ccccc2)cc1 [Compound Q12] | 111 | -70 | 
CCCc1ccc(C(=O)CCC(=O)N[C@H]2CCOC2=O)cc1 [Compound D7] | 18 | 15 | 
O=C(N[C@H]1CCOC1=O)c1ccc([N+](=O)[O-])cc1 [Compound Q7] | 10 | 28 | 
O=C(CCc1ccccc1)N[C@H]1CCOC1=O [Compound B9] | 88 | -40 | EC50 fold higher than those for substituted PPHLs (CepR [1]; Ec-reporter): ~ 1000 fold; EC50 (CepR [1]; [5]): 1000 nM; Maximal Activation (%) (CepR [1]; Ec-reporter): 88%
O=C(Cc1ccccc1)N[C@H]1CCOC1=O [Control 5, reference compound] |  | 11 | Act% (CepR [1]; Table S2, Ec-reporter, screening conc. 100 μM, listed as Co n tro l 5): 9.8%
CCOc1ccc(C(=O)N[C@H]2CCOC2=O)cc1 [Compound R1] | 99 | -20 | EC50 (CepR [1]; Table S2, Ec-reporter): 180 nM
O=C(CCCc1c[nH]c2ccccc12)NC1CCCC1 [Compound F21] | -4.0 | 25 | 
COc1cccc(CC(=O)N[C@H]2CCOC2=O)c1 [Compound E2] | 28 | -10 | 
CCCCCCC(=O)N[C@H]1CCOC1=O [Compound C7-AHL, reference compound] | 106 | -10 | 
O=C(COc1ccc(F)cc1)N[C@H]1CCOC1=O [Compound E19] | 42 | 22 | 
O=C(N[C@H]1CCOC1=O)c1ccc(I)cc1 [Compound Q5] | 78 | 0.0 | 
O=C(N[C@H]1CCOC1=O)c1ccc(Br)cc1 [Compound B6] | 56 | 18 | 
CCCCCCCCCC(=O)CC(=O)NCCc1ccccc1 [Compound F50] |  |  | Act% (CepR [1]; Table S2, Ec-reporter, screening conc. 50 μM): 12%; Inh% (100-Act%) (CepR [2]; screening conc. 50 μM): 1.0%
Cc1cccc(CCC(=O)N[C@H]2CCOC2=O)c1 [Compound E27] | 75 | -10 | EC50 (CepR [1]; Table S2, Ec-reporter): 850 nM
O=C(CCCC1CCCCC1)N[C@H]1CCOC1=O [Compound S6] | 90 | -10 | 

Compound | Act% (CepR [1]; [3]) [%] | Inh% (100-Act%) (CepR [2]; [4]) [%] | further results
O=C(COc1ccc(OC(F)(F)F)cc1)N[C@H]1CCOC1=O [Compound D15] | 46 | -20 | 
COc1ccc(C(=O)N[C@H]2CCOC2=O)cc1 [Compound Q6] | 25 | -20 | 
O=C(CC1CCCCC1)N[C@H]1CCOC1=O [Compound S7] | 7.6 | 20 | 
O=C(Cc1ccccc1)NC1CCCC1 [Compound F16] | 7.4 | -30 | 
CCCCCC(=O)CC(=O)N[C@@H]1CCOC1=O [D-3’O-C8-AHL] | 85 | -40 | CepR agonism in words (CepR [1]; Ec-reporter): inactive; EC50 (CepR [1]; [5]): ≥ 27000 nM; Maximal Activation (%) (CepR [1]; Ec-reporter): 85%
COc1cccc(OCC(=O)N[C@H]2CCOC2=O)c1 [Compound E18] | 30 | 0.0 | 
CCCCCCCCCC(=O)CC(=O)Nc1cccc(OC)c1 [Control 13, reference compound] | 2.0 | 13 | 
Cc1cccc(CC(=O)N[C@H]2CCOC2=O)c1 [Compound E1] | 16 | 11 | 
O=C(N[C@H]1CCOC1=O)c1ccc(F)cc1 [Compound Q3] | 11 | 17 | 
O=C(COc1ccc(Cl)cc1)N[C@H]1CCOC1=O [Compound E20] | 100 | -20 | EC50 (CepR [1]; Table S2, Ec-reporter): 210 nM
O=C(N[C@H]1CCOC1=O)c1cnn(-c2ccccc2)c1C(F)(F)F [Compound D9] | 14 | 0.0 | 
O=C(Cc1ccc(SC(F)(F)F)cc1)N[C@H]1CCOC1=O [Compound E8] | 14 | 0.0 | 
Cc1ccc(CC(=O)N[C@H]2CCOC2=O)cc1 [Compound C19] | -1.6 | -20 | 
O=C(CCc1cccs1)N[C@H]1CCOC1=O [Compound D3] | 87 | -40 | 
CSc1ccc(CC(=O)N[C@H]2CCOC2=O)cc1 [Compound E6] | 3.7 | -10 | 
O=C(Cc1c[nH]c2ccccc12)N[C@H]1CCOC1=O [Compound B13] | -1.1 | 22 | 
O=C(N[C@H]1CCOC1=O)c1ccc2c(c1)OCO2 [Compound Q11] | 6.9 | 5.0 | 
CCCCCCCCCC(=O)N[C@H]1CCOC1=O [Compound C10-AHL, decanoyl L-homoserine lactone, reference compound] | 87 | -30 | EC50 (CepR [1]; [5]): 109 nM and 110 nM; Maximal Activation (%) (CepR [1]; Ec-reporter): 87%
O=C(Cc1ccc(-c2ccccc2)cc1)NC1CCCC1 [Compound F20] | 0.5 | -10 | 
meta-bromo-thiolactone [mBTL, reference compound] | 0.4 | -60 | 
O=C(Cc1ccc(-c2ccccc2)cc1)N[C@H]1CCOC1=O [Compound C18] | 1.4 | -20 | 
O=C(Cc1ccc(C(F)(F)F)cc1)N[C@H]1CCOC1=O [Compound C20] | 0.3 | -52 | 
